Assay results as given in US12319672B2, “Alpha-D-galactopyranoside derivatives” (Idorsia Pharmaceuticals Ltd, priority 2019, dated 2025).

Tests used:
[1] = target: human Gal-1 (hGal-1); assay: Competitive binding assay: binding of biotinylated hGal-1 to microplate-adsorbed asialofetuin (ASF); conditions: Activities on hGal-1; mean values of several measurements
How it was run: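 Compounds diluted in DMSO competed with biotinylated hGal-3 or hGal-1 (300-1000 ng/mL) for binding to plate-adsorbed asialofetuin for 3 h at 4° C. Bound galectin was detected with streptavidin-peroxidase (80 ng/mL, 1 h, 4° C) and ABTS substrate; IC50 reported as mean of several measurements.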

[2] = target: human Gal-3 (hGal-3) (Homo sapiens (Human), UniProt P17931); assay: Competitive binding assay: binding of biotinylated hGal-3 to microplate-adsorbed asialofetuin (ASF); conditions: Activity on hGal-3; mean values of several measurements
Sequence of human Gal-3 (hGal-3) (P17931 whole entry): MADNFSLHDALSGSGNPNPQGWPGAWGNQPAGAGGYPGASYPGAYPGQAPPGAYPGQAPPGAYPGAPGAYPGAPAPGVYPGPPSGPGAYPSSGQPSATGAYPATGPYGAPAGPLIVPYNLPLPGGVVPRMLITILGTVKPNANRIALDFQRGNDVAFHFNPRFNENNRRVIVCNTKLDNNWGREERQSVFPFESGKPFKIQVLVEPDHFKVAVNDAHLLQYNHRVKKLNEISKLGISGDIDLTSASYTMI
How it was run: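 Biotin-hGal-3/hGal-1 300-1000 ng/mL + cpd (DMSO dilutions) on ASF-coated plate, 3 h 4° C; wash; SA-HRP 80 ng/mL 1 h 4° C; wash; ABTS. IC50 = mean of several runs. hGal-1 preferably Cys→Ser (all six) mutant.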

Sequence of human Gal-1 (hGal-1) (P09382 2-135 limits assumed): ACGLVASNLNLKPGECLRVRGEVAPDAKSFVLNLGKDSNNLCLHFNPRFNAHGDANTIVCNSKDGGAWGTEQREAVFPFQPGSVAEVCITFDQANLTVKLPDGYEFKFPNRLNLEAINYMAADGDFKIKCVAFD

| SMILES | IC50 [1] [nM] | IC50 [2] [nM] |
| --- | --- | --- |
| CO[C@@H]1[C@@H](n2cc(-c3ccc(F)c(F)c3F)nn2)[C@@H](O)[C@@H](CO)O[C@@H]1CC1CC(C2CCNCC2)=NO1 (stereo partly drawn) [Ex 1.144] | 740 | 180 |
| CO[C@@H]1[C@@H](n2cc(-c3cc(F)c(Cl)c(F)c3)nn2)[C@@H](O)[C@@H](CO)O[C@@H]1CC1CC(C2CCN(C(=O)OC(C)(C)C)CC2)=NO1 (stereo partly drawn) [Ex 1.145] | 1560 | 170 |
| CCOC(=O)N1CCC(c2cc(C[C@H]3O[C@H](CO)[C@H](O)[C@H](n4cc(-c5ccc(Cl)c(F)c5)nn4)[C@H]3OC)no2)CC1 [Ex 1.149] | 470 | 84 |
| CCOC(=O)N1CCC(c2cc(C[C@H]3O[C@H](CO)[C@H](O)[C@H](n4cc(-c5ccc(F)c(F)c5F)nn4)[C@H]3OC)no2)CC1 [Ex 1.150] | 140 | 23 |
| CO[C@@H]1[C@@H](n2cc(-c3ccc(C)c(F)c3)nn2)[C@@H](O)[C@@H](CO)O[C@@H]1Cc1cc(C2CCN(S(C)(=O)=O)CC2)on1 [Ex 1.153] | 1600 | 67 |
| CO[C@@H]1[C@@H](n2cc(-c3ccc(Cl)c(F)c3F)nn2)[C@@H](O)[C@@H](CO)O[C@@H]1Cc1cc(C2CCN(S(C)(=O)=O)CC2)on1 [Ex 1.154] | 360 | 33 |
| CO[C@@H]1[C@@H](n2cc(-c3ccc(Cl)c(F)c3)nn2)[C@@H](O)[C@@H](CO)O[C@@H]1Cc1cc(C2CCN(S(C)(=O)=O)CC2)on1 [Ex 1.156] | 940 | 31 |
| CO[C@@H]1[C@@H](n2cc(-c3cc(F)c(Cl)c(F)c3)nn2)[C@@H](O)[C@@H](CO)O[C@@H]1Cc1cc(C2CCN(S(C)(=O)=O)CC2)on1 [Ex 1.158] | 1520 | 66 |
| CO[C@@H]1[C@@H](n2cc(-c3cc(F)cc(Cl)c3)nn2)[C@@H](O)[C@@H](CO)O[C@@H]1Cc1cc(C2CCN(S(C)(=O)=O)CC2)on1 [Ex 1.160] | 730 | 78 |
| CO[C@@H]1[C@@H](n2cc(-c3ccc(Br)c(F)c3F)nn2)[C@@H](O)[C@@H](CO)O[C@@H]1Cc1cc(C2CCN(C(C)=O)CC2)on1 [Ex 1.164] | 1070 | 38 |
| CO[C@@H]1[C@@H](n2cc(-c3ccc(C)c(F)c3F)nn2)[C@@H](O)[C@@H](CO)O[C@@H]1Cc1cc(C2CCN(C(C)=O)CC2)on1 [Ex 1.168] | 930 | 29 |
| CO[C@@H]1[C@@H](n2cc(-c3cc(F)c(C)c(F)c3)nn2)[C@@H](O)[C@@H](CO)O[C@@H]1Cc1cc(C2CCCCC2)on1 [Ex 1.170] | > 100000 | 400 |
| CO[C@@H]1[C@@H](n2cc(-c3ccc(Cl)c(F)c3F)nn2)[C@@H](O)[C@@H](CO)O[C@@H]1Cc1cc(C2CCCCC2)on1 [Ex 1.172] | 57000 | 260 |
| CO[C@@H]1[C@@H](n2cc(-c3ccc(Cl)c(F)c3)nn2)[C@@H](O)[C@@H](CO)O[C@@H]1Cc1cc(C2CCCCC2)on1 [Ex 1.174] | 18800 | 900 |
| CO[C@@H]1[C@@H](n2cc(-c3cc(F)c(Cl)c(F)c3)nn2)[C@@H](O)[C@@H](CO)O[C@@H]1Cc1cc(C2CCCCC2)on1 [Ex 1.176] | > 100000 | 870 |
| CO[C@@H]1[C@@H](n2cc(-c3ccc(C)c(F)c3F)nn2)[C@@H](O)[C@@H](CO)O[C@@H]1Cc1cc(C2CCCCC2)on1 [Ex 1.177] | 64800 | 180 |
| CO[C@@H]1[C@@H](n2cc(-c3cc(F)cc(Cl)c3)nn2)[C@@H](O)[C@@H](CO)O[C@@H]1Cc1cc(C2CCCCC2)on1 [Ex 1.178] | 10300 | 980 |
| CO[C@@H]1[C@@H](n2cc(-c3cc(F)c(C)c(F)c3)nn2)[C@@H](O)[C@@H](CO)O[C@@H]1Cc1cc(C2CCOCC2)on1 [Ex 1.179] | 11000 | 150 |
| CO[C@@H]1[C@@H](n2cc(-c3ccc(C)c(F)c3)nn2)[C@@H](O)[C@@H](CO)O[C@@H]1Cc1cc(C2CCOCC2)on1 [Ex 1.180] | 4930 | 180 |
| CO[C@@H]1[C@@H](n2cc(-c3ccc(C)c(F)c3F)nn2)[C@@H](O)[C@@H](CO)O[C@@H]1Cc1cc(C2CCOCC2)on1 [Ex 1.186] | 6200 | 85 |
| CO[C@@H]1[C@@H](n2cc(-c3cc(F)cc(Cl)c3)nn2)[C@@H](O)[C@@H](CO)O[C@@H]1Cc1cc(C2CCOCC2)on1 [Ex 1.187] | 5980 | 450 |
| CO[C@@H]1[C@@H](n2cc(-c3cc(F)c(C)c(F)c3)nn2)[C@@H](O)[C@@H](CO)O[C@@H]1Cc1cc(C(C)(C)C)on1 [Ex 1.188] | 7620 | 180 |
| CO[C@@H]1[C@@H](n2cc(-c3ccc(C)c(F)c3)nn2)[C@@H](O)[C@@H](CO)O[C@@H]1Cc1cc(C(C)(C)C)on1 [Ex 1.189] | 5430 | 170 |
| CO[C@@H]1[C@@H](n2cc(-c3ccc(Cl)c(F)c3F)nn2)[C@@H](O)[C@@H](CO)O[C@@H]1Cc1cc(C(C)(C)C)on1 [Ex 1.190] | 4610 | 71 |

Other lines, results leading:

| IC50 [1] [nM] | IC50 [2] [nM] | SMILES |
| --- | --- | --- |
| 4660 | 240 | CO[C@@H]1[C@@H](n2cc(-c3cc(F)c(Cl)c(F)c3)nn2)[C@@H](O)[C@@H](CO)O[C@@H]1CC1CC(C2CCNCC2)=NO1 (stereo partly drawn) [Ex 1.146] |
| 1020 | 19 | CCOC(=O)N1CCC(c2cc(C[C@H]3O[C@H](CO)[C@H](O)[C@H](n4cc(-c5ccc(C)c(F)c5F)nn4)[C@H]3OC)no2)CC1 [Ex 1.151] |
| 1510 | 39 | CO[C@@H]1[C@@H](n2cc(-c3cc(F)c(C)c(F)c3)nn2)[C@@H](O)[C@@H](CO)O[C@@H]1Cc1cc(C2CCN(S(C)(=O)=O)CC2)on1 [Ex 1.152] |
| 94 | 30 | CO[C@@H]1[C@@H](n2cc(-c3ccc(F)c(F)c3F)nn2)[C@@H](O)[C@@H](CO)O[C@@H]1Cc1cc(C2CCN(S(C)(=O)=O)CC2)on1 [Ex 1.157] |
| 1530 | 57 | CO[C@@H]1[C@@H](n2cc(-c3ccc(C)c(F)c3F)nn2)[C@@H](O)[C@@H](CO)O[C@@H]1Cc1cc(C2CCN(S(C)(=O)=O)CC2)on1 [Ex 1.159] |
| 1660 | 34 | CO[C@@H]1[C@@H](n2cc(-c3cc(F)c(C)c(F)c3)nn2)[C@@H](O)[C@@H](CO)O[C@@H]1Cc1cc(C2CCN(C(C)=O)CC2)on1 [Ex 1.161] |
| 740 | 37 | CO[C@@H]1[C@@H](n2cc(-c3ccc(C)c(F)c3)nn2)[C@@H](O)[C@@H](CO)O[C@@H]1Cc1cc(C2CCN(C(C)=O)CC2)on1 [Ex 1.162] |
| 680 | 59 | CO[C@@H]1[C@@H](n2cc(-c3ccc(Cl)c(F)c3)nn2)[C@@H](O)[C@@H](CO)O[C@@H]1Cc1cc(C2CCN(C(C)=O)CC2)on1 [Ex 1.165] |
| 260 | 26 | CO[C@@H]1[C@@H](n2cc(-c3ccc(F)c(F)c3F)nn2)[C@@H](O)[C@@H](CO)O[C@@H]1Cc1cc(C2CCN(C(C)=O)CC2)on1 [Ex 1.166] |
| 470 | 154 | CO[C@@H]1[C@@H](n2cc(-c3cc(F)cc(Cl)c3)nn2)[C@@H](O)[C@@H](CO)O[C@@H]1Cc1cc(C2CCN(C(C)=O)CC2)on1 [Ex 1.169] |
| 13200 | 440 | CO[C@@H]1[C@@H](n2cc(-c3ccc(C)c(F)c3)nn2)[C@@H](O)[C@@H](CO)O[C@@H]1Cc1cc(C2CCCCC2)on1 [Ex 1.171] |
| 47800 | 440 | CO[C@@H]1[C@@H](n2cc(-c3ccc(Br)c(F)c3F)nn2)[C@@H](O)[C@@H](CO)O[C@@H]1Cc1cc(C2CCCCC2)on1 [Ex 1.173] |
| 4760 | 310 | CO[C@@H]1[C@@H](n2cc(-c3ccc(F)c(F)c3F)nn2)[C@@H](O)[C@@H](CO)O[C@@H]1Cc1cc(C2CCCCC2)on1 [Ex 1.175] |
| 8040 | 56 | CO[C@@H]1[C@@H](n2cc(-c3ccc(Cl)c(F)c3F)nn2)[C@@H](O)[C@@H](CO)O[C@@H]1Cc1cc(C2CCOCC2)on1 [Ex 1.181] |
| 4730 | 82 | CO[C@@H]1[C@@H](n2cc(-c3ccc(Br)c(F)c3F)nn2)[C@@H](O)[C@@H](CO)O[C@@H]1Cc1cc(C2CCOCC2)on1 [Ex 1.182] |
| 5290 | 280 | CO[C@@H]1[C@@H](n2cc(-c3ccc(Cl)c(F)c3)nn2)[C@@H](O)[C@@H](CO)O[C@@H]1Cc1cc(C2CCOCC2)on1 [Ex 1.183] |
| 1180 | 130 | CO[C@@H]1[C@@H](n2cc(-c3ccc(F)c(F)c3F)nn2)[C@@H](O)[C@@H](CO)O[C@@H]1Cc1cc(C2CCOCC2)on1 [Ex 1.184] |
| 1450 | 190 | CO[C@@H]1[C@@H](n2cc(-c3cc(F)c(Cl)c(F)c3)nn2)[C@@H](O)[C@@H](CO)O[C@@H]1Cc1cc(C2CCOCC2)on1 [Ex 1.185] |
